The results in this text go back to patent US7994185B2, “Benzene sulfonamide thiazole and oxazole compounds” (Glaxo Smith Kline LLC, priority 2008, dated 2011).

Read-outs that look alike come from different tables or passages of the source. Bounds are passed on as bounds.

For assay [1], the system named is Human melanoma cancer cells (SK-MEL-28). Nature of the assay: Cell growth inhibition assay (CellTiter-Glo), SK-MEL-28. Type of assay: cell-based. On the technique in general: Cellular ATP, detected with luciferase, serves as a proxy for viable cell number.
The target in assay [2] is T1, BRAFV600E full-length (amino acids 2-766) (Homo sapiens, UniProt P15056, V600E).
T1 construct: His6-tagged BRAFV600E full-length (amino acids 2-766); His6; made in house; host or cells: baculovirus expression system (insect cells)
Nature of the assay: B-Raf Accelerated MEK ATPase assay (BRAMA). The assay is classed as biochemical. The method in brief:
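Coupled-enzyme readout: ADP generated by MEK-mediated ATP hydrolysis, uncoupled from ERK phosphorylation, is linked to NADH oxidation through pyruvate kinase and lactate dehydrogenase.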

For assay [3], the system named is Human colon tumor cells (Colo205). The experiment in a line: Cell growth inhibition assay (CellTiter-Glo), Colo205. The assay is classed as cell-based. Summed up: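 Read-out was CellTiter-Glo luminescence (total ATP as a cell-number surrogate), expressed as % inhibition against DMSO vehicle wells. Before that, cells grown in RPMI/10% FBS were treated for 3 days at 37 °C with ten 1:3-spaced compound concentrations, final DMSO 0.2%.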

Setting [4] is: SK-MEL-28, 72 h, Table 3a, 3 days incubation, read-out: Activity in SK-MEL-28 Tumor Cells.
[5] abbreviates: SK-MEL-28, Table 3b, later runs, average for the one or more runs, categorized, read-out: IC50 for SK-MEL-28.
Where [6] appears, read: B-Raf Activity, Table 1a, highest pIC50 for the one or more runs, categorized.
[7] abbreviates: B-Raf pIC50, Table 1b, later runs, average pIC50 for the one or more runs, categorized.
Setting [8] is: COLO 205, 72 h, Table 2a, 3 days incubation, read-out: Activity in Colo205 Tumor Cells.
Where [9] appears, read: COLO 205, Table 2b, later runs, average for the one or more runs, categorized, read-out: IC50 for Colo205.

T1 sequence (P15056 2-766 V600E): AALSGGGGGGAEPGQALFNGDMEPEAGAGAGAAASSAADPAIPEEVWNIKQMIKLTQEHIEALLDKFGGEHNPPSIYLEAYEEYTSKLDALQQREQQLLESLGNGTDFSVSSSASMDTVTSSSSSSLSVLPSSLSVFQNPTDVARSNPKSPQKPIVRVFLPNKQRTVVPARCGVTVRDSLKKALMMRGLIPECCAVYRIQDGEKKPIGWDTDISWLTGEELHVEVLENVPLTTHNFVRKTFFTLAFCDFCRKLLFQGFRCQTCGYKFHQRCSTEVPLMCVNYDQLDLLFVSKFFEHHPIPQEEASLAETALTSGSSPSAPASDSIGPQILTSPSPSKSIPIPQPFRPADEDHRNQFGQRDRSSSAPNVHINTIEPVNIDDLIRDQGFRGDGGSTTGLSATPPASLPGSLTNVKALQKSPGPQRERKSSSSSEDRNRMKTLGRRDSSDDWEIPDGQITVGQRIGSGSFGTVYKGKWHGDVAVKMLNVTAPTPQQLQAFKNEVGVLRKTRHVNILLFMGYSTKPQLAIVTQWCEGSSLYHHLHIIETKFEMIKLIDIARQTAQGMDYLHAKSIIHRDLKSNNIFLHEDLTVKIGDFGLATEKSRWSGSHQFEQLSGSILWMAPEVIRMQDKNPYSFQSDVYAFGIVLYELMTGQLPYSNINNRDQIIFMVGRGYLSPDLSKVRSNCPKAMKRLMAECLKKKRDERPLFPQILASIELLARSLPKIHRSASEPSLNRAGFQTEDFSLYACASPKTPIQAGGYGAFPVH

Consider `CC(C)c1nc(-c2ccc(F)c(NS(=O)(=O)c3c(F)cccc3F)c2)c(-c2ccnc(NCCN(C)C)n2)s1` [Example 161], for which the IC50 was greater than 1 µM in assay [1] (setting [4]); 1 to 10 µM in assay [1] (setting [5]); 0.1 to 1 µM in assay [2] (setting [6]); 0.0316 to 1 µM in assay [2] (setting [7]); greater than 1 µM in assay [3] (setting [8]); 1 to 10 µM in assay [3] (setting [9]).
On to `COCC(C)Nc1nccc(-c2sc(C(C)C)nc2-c2ccc(F)c(NS(=O)(=O)c3c(F)cccc3F)c2)n1` (centres unmarked) [Example 162], for which the IC50 in assay [1] (setting [4]) is 0.1 to 1 µM; in assay [1] (setting [5]) it was 0.1 to 1 µM; in assay [2] (setting [6]), 0.1 to 1 µM; in assay [2] (setting [7]), 0.0316 to 1 µM; in assay [3] (setting [8]) it was 0.1 to 1 µM; in assay [3] (setting [9]) it was 0.1 to 1 µM.
For `CC(C)c1nc(-c2ccc(F)c(NS(=O)(=O)c3c(F)cccc3F)c2)c(-c2ccnc(NCCCN(C)C)n2)s1` [Example 163], the IC50 was greater than 1 µM in assay [1] (setting [4]), greater than 1 µM in assay [2], greater than 1 µM in assay [3] (setting [8]) and 1 to 10 µM in assay [3] (setting [9]).
For the molecule `CC(C)c1nc(-c2ccc(F)c(NS(=O)(=O)c3c(F)cccc3F)c2)c(-c2ccnc(NCCN3CCCC3)n2)s1` [Example 164], the IC50 is greater than 1 µM in assay [1] (setting [4]); 1 to 10 µM in assay [1] (setting [5]); greater than 1 µM in assay [2]; greater than 1 µM in assay [3] (setting [8]); 1 to 10 µM in assay [3] (setting [9]).
As for `CC(C)c1nc(-c2ccc(F)c(NS(=O)(=O)c3c(F)cccc3F)c2)c(-c2ccnc(NCCN3CCOCC3)n2)s1` [Example 165], the IC50 in assay [1] (setting [4]) was 0.1 to 1 µM; in assay [1] (setting [5]), 0.1 to 1 µM; in assay [2] (setting [7]), 0.0316 to 1 µM; in assay [3] (setting [8]), 0.1 to 1 µM; in assay [3] (setting [9]) it was 0.1 to 1 µM.
For the molecule `CC(C)c1nc(-c2ccc(F)c(NS(=O)(=O)c3c(F)cccc3F)c2)c(-c2ccnc(NCCOCCO)n2)s1` [Example 166], the IC50 in assay [1] (setting [4]) is 0.1 to 1 µM; in assay [1] (setting [5]), 0.1 to 1 µM; in assay [2] (setting [7]), 0.0316 to 1 µM; in assay [3] (setting [8]) it was 0.1 to 1 µM; in assay [3] (setting [9]) it was 0.1 to 1 µM.
As for `CC(C)c1nc(-c2ccc(F)c(NS(=O)(=O)c3c(F)cccc3F)c2)c(-c2ccnc(NCCCCN(C)C)n2)s1` [Example 167], the IC50 is greater than 1 µM in assay [1] (setting [4]); 1 to 10 µM in assay [1] (setting [5]); 0.0316 to 1 µM in assay [2] (setting [7]); 0.1 to 1 µM in assay [3] (setting [8]); 0.1 to 1 µM in assay [3] (setting [9]).
In the case of `COCCCNc1nccc(-c2sc(C(C)C)nc2-c2ccc(F)c(NS(=O)(=O)c3c(F)cccc3F)c2)n1` [Example 168], the IC50 in assay [1] (setting [4]) lay in the range of 0.1 to 1 µM; in assay [1] (setting [5]), 0.1 to 1 µM; in assay [2] (setting [7]), 0.0316 to 1 µM; in assay [3] (setting [8]), 0.1 to 1 µM; in assay [3] (setting [9]), 0.1 to 1 µM.
As to `CC(C)c1nc(-c2ccc(F)c(NS(=O)(=O)c3c(F)cccc3F)c2)c(-c2ccnc(NCCN3CCS(=O)(=O)CC3)n2)s1` [Example 175], the IC50 in assay [1] (setting [4]) was 0.1 to 1 µM; in assay [1] (setting [5]), 0.1 to 1 µM; in assay [2] (setting [6]), less than 0.1 µM; in assay [2] (setting [7]), 0.0316 to 1 µM; in assay [3] (setting [8]), 0.1 to 1 µM; in assay [3] (setting [9]) it was 0.1 to 1 µM.
Turning to `CC(C)CNc1nccc(-c2sc(C(C)C)nc2-c2cccc(NS(=O)(=O)c3c(F)cccc3F)c2F)n1` [Example 176], the IC50 was less than 0.1 µM in assay [1] (setting [4]); less than 0.1 µM in assay [1] (setting [5]); less than 0.1 µM in assay [2] (setting [6]); no more than 0.00316 µM in assay [2] (setting [7]); less than 0.1 µM in assay [3] (setting [8]); less than 0.1 µM in assay [3] (setting [9]).
`CC(C)(C)c1nc(-c2cccc(NS(=O)(=O)c3cc(F)ccc3F)c2F)c(-c2ccnc(NCC(F)F)n2)s1` [Example 177]: the IC50 in assay [1] (setting [4]) was less than 0.1 µM; in assay [1] (setting [5]), 1 to 10 µM; in assay [2] (setting [6]) it was less than 0.1 µM; in assay [2] (setting [7]), no more than 0.00316 µM; in assay [3] (setting [8]), less than 0.1 µM; in assay [3] (setting [9]), 1 to 10 µM.
As to `CC(C)c1nc(-c2ccc(F)c(NS(=O)(=O)c3c(F)cccc3F)c2)c(-c2ccnc(NCCF)n2)s1` [Example 178], the IC50 in assay [1] (setting [4]) was 0.1 to 1 µM; in assay [1] (setting [5]), 0.1 to 1 µM; in assay [2] (setting [6]) it was less than 0.1 µM; in assay [2] (setting [7]), 0.0316 to 1 µM; in assay [3] (setting [8]) it was 0.1 to 1 µM; in assay [3] (setting [9]) it was 0.1 to 1 µM.
